According to ChEMBL document CHEMBL1129317, “Novel selective and partial agonists of 5-HT3 receptors. Part 1. Synthesis and biological evaluation of piperazinopyrrolothienopyrazines” (J Med Chem, 1996):

Experiments:
[1] = molecular target: 5-hydroxytryptamine receptor 1B (Rattus norvegicus, UniProt P28564); test: Binding affinity for 5-hydroxytryptamine 1B receptor
[2] = molecular target: T1, 5-hydroxytryptamine receptor 1A (Homo sapiens, UniProt P08908); test: Binding affinity for 5-hydroxytryptamine 1A receptor
T1 sequence (P08908 whole entry): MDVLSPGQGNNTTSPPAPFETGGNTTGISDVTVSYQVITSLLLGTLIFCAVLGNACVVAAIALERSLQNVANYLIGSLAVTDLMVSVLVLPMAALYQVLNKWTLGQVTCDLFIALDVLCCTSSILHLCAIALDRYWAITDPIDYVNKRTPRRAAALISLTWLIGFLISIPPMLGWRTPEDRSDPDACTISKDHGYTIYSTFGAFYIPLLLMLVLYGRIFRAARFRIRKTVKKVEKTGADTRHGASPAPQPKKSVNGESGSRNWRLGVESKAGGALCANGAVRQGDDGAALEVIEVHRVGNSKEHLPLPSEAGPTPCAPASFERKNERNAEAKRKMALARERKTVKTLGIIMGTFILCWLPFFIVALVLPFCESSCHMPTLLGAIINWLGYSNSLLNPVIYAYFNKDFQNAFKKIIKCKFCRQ

[3] = molecular target: 5-hydroxytryptamine receptor 2A (Bos taurus, UniProt Q75Z89); test: Binding affinity towards 5-hydroxytryptamine 2A receptor
5-hydroxytryptamine receptor 2A, sequence (Q75Z89 whole entry): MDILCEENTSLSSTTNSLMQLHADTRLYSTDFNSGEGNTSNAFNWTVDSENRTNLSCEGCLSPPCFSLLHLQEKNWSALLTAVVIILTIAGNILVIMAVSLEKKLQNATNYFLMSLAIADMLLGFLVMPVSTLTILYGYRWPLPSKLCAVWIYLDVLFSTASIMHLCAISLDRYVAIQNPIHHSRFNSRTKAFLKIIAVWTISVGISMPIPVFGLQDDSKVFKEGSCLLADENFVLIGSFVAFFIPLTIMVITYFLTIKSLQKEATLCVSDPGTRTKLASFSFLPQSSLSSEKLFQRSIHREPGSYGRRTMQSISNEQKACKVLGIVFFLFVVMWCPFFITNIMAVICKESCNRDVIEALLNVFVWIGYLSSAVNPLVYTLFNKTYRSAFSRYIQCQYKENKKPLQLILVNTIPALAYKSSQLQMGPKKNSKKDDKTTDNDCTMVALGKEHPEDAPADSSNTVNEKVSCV

[4] = molecular target: T2, Serotonin 3 (5-HT3) receptor (Rattus norvegicus) (UniProt P35563+Q9JJ16); test: Agonistic activity of compound towards 5-hydroxytryptamine 3 receptor in Von Bezold-Jarisch Reflex in rats at 100 (ug/kg), evaluated as change in heart rate; format: functional
[5] = test system: NG108-15; test: (§1) In vitro effective concentration against [14C]guanidinium uptake into NG 108-15 cells; format: functional, cell-based; settings: Murinae
[6] = molecular target: T2, Serotonin 3 (5-HT3) receptor (Rattus norvegicus); test: Antagonistic activity of compound towards 5-hydroxytryptamine 3 receptor in Von Bezold-Jarisch Reflex in rats at 60 (ug/kg), evaluated as percent inhibition of bradycardia; format: functional
[7] = molecular target: T3, Serotonin 3 (5-HT3) receptor (Rattus norvegicus, UniProt P35563+Q9JJ16); test: Binding affinity towards 5-hydroxytryptamine 3 receptor; format: protein-complex assay
T3 sequence (P35563 whole entry): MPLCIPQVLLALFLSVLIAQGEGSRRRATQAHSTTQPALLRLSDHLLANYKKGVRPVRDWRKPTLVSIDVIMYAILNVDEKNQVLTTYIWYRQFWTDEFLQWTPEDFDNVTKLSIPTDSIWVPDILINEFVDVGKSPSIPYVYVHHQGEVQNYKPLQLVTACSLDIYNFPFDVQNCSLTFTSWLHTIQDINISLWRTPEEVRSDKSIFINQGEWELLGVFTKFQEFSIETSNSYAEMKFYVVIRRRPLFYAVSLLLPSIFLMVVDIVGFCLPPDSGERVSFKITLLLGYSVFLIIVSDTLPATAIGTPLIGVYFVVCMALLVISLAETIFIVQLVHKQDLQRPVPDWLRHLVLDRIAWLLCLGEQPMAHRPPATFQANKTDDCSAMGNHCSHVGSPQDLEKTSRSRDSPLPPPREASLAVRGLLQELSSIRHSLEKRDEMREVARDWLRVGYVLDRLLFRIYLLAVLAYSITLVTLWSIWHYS
T3 sequence (Q9JJ16 whole entry): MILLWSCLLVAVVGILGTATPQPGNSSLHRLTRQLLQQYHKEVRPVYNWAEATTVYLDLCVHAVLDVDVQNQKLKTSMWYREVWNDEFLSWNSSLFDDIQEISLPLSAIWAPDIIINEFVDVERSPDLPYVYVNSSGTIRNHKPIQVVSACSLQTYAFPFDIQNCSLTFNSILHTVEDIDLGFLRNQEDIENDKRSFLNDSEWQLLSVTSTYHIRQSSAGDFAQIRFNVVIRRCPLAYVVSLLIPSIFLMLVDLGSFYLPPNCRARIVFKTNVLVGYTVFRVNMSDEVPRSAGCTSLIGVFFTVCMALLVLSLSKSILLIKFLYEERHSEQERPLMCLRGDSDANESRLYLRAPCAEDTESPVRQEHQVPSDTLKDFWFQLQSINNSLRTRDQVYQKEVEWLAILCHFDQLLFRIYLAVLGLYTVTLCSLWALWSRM

[8] = molecular target: T2, Serotonin 3 (5-HT3) receptor (Rattus norvegicus); test: Agonistic activity of compound towards 5-hydroxytryptamine 3 receptor in Von Bezold-Jarisch Reflex in rats at 60 (ug/kg), evaluated as change in heart rate; format: functional
[9] = molecular target: 5-hydroxytryptamine receptor 1D (Sus scrofa, UniProt P79400); test: Binding affinity for 5-hydroxytryptamine 1D receptor
5-hydroxytryptamine receptor 1D, sequence (P79400 whole entry): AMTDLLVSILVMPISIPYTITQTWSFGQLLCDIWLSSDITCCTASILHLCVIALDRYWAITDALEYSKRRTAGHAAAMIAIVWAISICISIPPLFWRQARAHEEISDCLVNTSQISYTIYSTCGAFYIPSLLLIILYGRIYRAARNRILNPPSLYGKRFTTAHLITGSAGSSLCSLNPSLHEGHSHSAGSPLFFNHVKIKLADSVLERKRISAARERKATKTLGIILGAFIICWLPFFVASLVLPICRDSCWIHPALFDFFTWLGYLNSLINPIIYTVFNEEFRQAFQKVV

[10] = molecular target: T2, Serotonin 3 (5-HT3) receptor (Rattus norvegicus); test: Antagonistic activity of compound towards 5-hydroxytryptamine 3 receptor in Von Bezold-Jarisch Reflex in rats at 100(ug/kg), evaluated as percent inhibition of bradycardia; format: functional
[11] = molecular target: T4, 5-hydroxytryptamine receptor 2C (Homo sapiens, UniProt P28335); test: Binding affinity towards 5-hydroxytryptamine 2C receptor
T4 sequence (P28335 whole entry): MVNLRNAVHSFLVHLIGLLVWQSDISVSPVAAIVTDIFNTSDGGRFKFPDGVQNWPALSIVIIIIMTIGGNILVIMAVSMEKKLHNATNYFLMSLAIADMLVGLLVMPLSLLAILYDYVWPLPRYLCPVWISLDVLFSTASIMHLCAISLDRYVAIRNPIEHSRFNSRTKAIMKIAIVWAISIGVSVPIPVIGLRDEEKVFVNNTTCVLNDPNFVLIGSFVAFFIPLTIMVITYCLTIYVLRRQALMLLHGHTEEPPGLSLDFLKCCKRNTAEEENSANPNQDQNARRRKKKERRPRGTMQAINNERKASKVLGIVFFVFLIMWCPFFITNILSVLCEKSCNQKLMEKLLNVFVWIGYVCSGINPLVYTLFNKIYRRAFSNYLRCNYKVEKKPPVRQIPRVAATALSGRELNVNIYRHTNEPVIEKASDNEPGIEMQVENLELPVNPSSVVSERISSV

[12] = molecular target: T2, Serotonin 3 (5-HT3) receptor (Rattus norvegicus); test: Antagonistic activity of compound towards 5-hydroxytryptamine 3 receptor in Von Bezold-Jarisch reflex in rats at 60(ug/kg), evaluated as percent inhibition of bradycardia; format: functional
[13] = molecular target: T2, Serotonin 3 (5-HT3) receptor (Rattus norvegicus); test: Agonistic activity of compound towards 5-hydroxytryptamine 3 receptorr in Von Bezold-Jarisch Reflex in rats at 100 (ug/kg), evaluated as change in heart rate; format: functional
[14] = test system: NG108-15; test: as §1; format: functional; settings: Murinae, read-out: ED50 (the source's name)
[15] = molecular target: T2, Serotonin 3 (5-HT3) receptor (Rattus norvegicus); test: 5-Hydroxy tryptamine 3 receptor showing agonist activity (in vivo) in Von Bezold-Jarisch Reflex in rats at 120 (ug/kg), evaluated as change in heart rate; format: functional, organism-based

5-hydroxytryptamine receptor 1B, sequence (P28564 whole entry): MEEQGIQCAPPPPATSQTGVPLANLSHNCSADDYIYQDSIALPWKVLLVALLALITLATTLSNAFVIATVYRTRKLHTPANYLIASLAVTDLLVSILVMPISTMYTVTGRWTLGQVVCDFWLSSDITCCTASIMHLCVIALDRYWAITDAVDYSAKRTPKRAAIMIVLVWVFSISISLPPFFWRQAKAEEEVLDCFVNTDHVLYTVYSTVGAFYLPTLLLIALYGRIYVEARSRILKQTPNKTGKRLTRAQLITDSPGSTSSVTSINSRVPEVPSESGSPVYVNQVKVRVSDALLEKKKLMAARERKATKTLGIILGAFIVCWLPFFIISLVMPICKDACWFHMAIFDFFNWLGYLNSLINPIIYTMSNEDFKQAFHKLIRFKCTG

| Compound | IC50 [1] | IC50 [2] | IC50 [3] | Change [4] | EC50 [5] | Change [6] | IC50 [7] | Change [8] | IC50 [9] | Change [10] | IC50 [11] | Change [12] | Change [13] | EC50 [14] | Change [15] |
| --- | --- | --- | --- | --- | --- | --- | --- | --- | --- | --- | --- | --- | --- | --- | --- |
| Fc1ccc(CN2CCN(c3nc4sccc4n4cccc34)CC2)cc1 | 1580 µM | 14.5 µM | 38 µM | 25% | 5 nM | 34% | 0.00117 µM | 0% | > 100 µM |  |  |  |  |  |  |
| c1ccc(CN2CCN(c3nc4sccc4n4cccc34)CC2)cc1 | 91.2 µM | 5.89 µM | 19.5 µM | 48% | 30 nM |  | 0.00457 µM |  | 93.3 µM | 67% | 3.72 µM |  |  |  |  |
| C=CCN1CCN(c2nc3sccc3n3cccc23)CC1 | 0.417 µM | 0.0676 µM | 2.34 µM |  |  |  | 0.000912 µM | 30% | 0.468 µM |  | 0.759 µM | 67% | 72% | 4 nM |  |
| c1cc2c(N3CCCCC3)nc3ccsc3n2c1 | > 100 µM | 64.6 µM | > 100 µM |  |  |  | 72.4 µM |  | > 100 µM |  | 57.5 µM |  |  |  |  |
| c1cc2c(N3CCNCC3)nc3ccsc3n2c1 | 0.0138 µM | 0.0589 µM | 2.63 µM |  | 80 nM |  | 0.012 µM | 35% | 0.603 µM |  | 0.0347 µM | 68% |  |  | 0% |
| Fc1ccc(CN2CCN(Cc3nc4ccsc4n4cccc34)CC2)cc1 | 19.5 µM | 7.76 µM | 13.8 µM |  |  |  | 18.2 µM |  | 38 µM |  | 14.1 µM |  |  |  |  |
| c1ccc(CN2CCN(c3nc4cc(-c5ccccc5)sc4n4cccc34)CC2)cc1 | > 100 µM | > 100 µM | 339 µM |  |  |  | 589 µM |  | > 100 µM |  | 468 µM |  |  |  |  |
| Clc1ccc(N2CCN(c3nc4ccsc4n4cccc34)CC2)cc1 | 302 µM | > 100 µM | 372 µM |  |  |  | 245 µM |  | > 100 µM |  | 102 µM |  |  |  |  |
| c1cc2c(N3CCOCC3)nc3ccsc3n2c1 | > 100 µM | 32.4 µM | 39.8 µM |  |  |  | 20.9 µM |  | 93.3 µM |  | 41.7 µM |  |  |  |  |
| c1ccc(C2CCN(c3nc4ccsc4n4cccc34)CC2)cc1 | > 100 µM | > 100 µM | > 100 µM |  |  |  | > 100 µM |  | > 100 µM |  | > 100 µM |  |  |  |  |
| O=C(c1ccc(F)cc1)N1CCN(c2nc3ccsc3n3cccc23)CC1 | 112 µM | 102 µM | 151 µM |  |  |  | 1050 µM |  | 129 µM |  | > 100 µM |  |  |  |  |
